Data as given in patent US12599136B2, “Substituted isophthalic acid diamides and their use as herbicides” (Bayer Aktiengesellschaft, priority 2020, dated 2026).

Columns and labels:
Format in all cases: in vivo
[1] = test system: Abutilon theophrasti; assay: Pre-emergence herbicidal action against ABUTH; conditions: visual score after 3 weeks vs untreated controls
Method in brief: (§1)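 Seeds sown in sandy loam, soil-covered; compound sprayed on soil surface pre-emergence. Application: WP/EC, 600–800 l/ha, 0.2% wetting agent. Readout: visual % damage at 3 weeks.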

[2] = test system: Alopecurus myosuroides; assay: Pre-emergence herbicidal action against ALOMY; conditions: visual score after 3 weeks vs untreated controls
Method in brief: as §1

[3] = test system: Amaranthus retroflexus; assay: Pre-emergence herbicidal action against AMARE; conditions: visual score after 3 weeks vs untreated controls
Method in brief: as §1

[4] = test system: Avena fatua; assay: Pre-emergence herbicidal action against AVEFA; conditions: 320 g/ha; visual score after 3 weeks vs untreated controls
Method in brief: as §1

[5] = test system: Cyperus esculentus; assay: Pre-emergence herbicidal action against CYPES; conditions: 320 g/ha; visual score after 3 weeks vs untreated controls
Method in brief: as §1

[6] = test system: Echinochloa crus-galli; assay: Pre-emergence herbicidal action against ECHCG; conditions: visual score after 3 weeks vs untreated controls
Method in brief: as §1

[7] = test system: Matricaria inodora; assay: Pre-emergence herbicidal action against MATIN; conditions: visual score after 3 weeks vs untreated controls
Method in brief: as §1

[8] = test system: Pharbitis purpurea; assay: Pre-emergence herbicidal action against PHBPU; conditions: 320 g/ha; visual score after 3 weeks vs untreated controls
Method in brief: as §1

[9] = test system: Hordeum murinum; assay: Pre-emergence herbicidal action against HORMU; conditions: 320 g/ha; visual score after 3 weeks vs untreated controls
Text: Seeds of monocotyledonous and dicotyledonous weed plants and crop plants are laid out in sandy loam soil in wood-fiber pots and covered with soil. The compounds of the invention, formulated in the form of wettable powders (WP) or as emulsion concentrates (EC), are then applied to the surface of the covering soil in the form of an aqueous suspension or emulsion at a water application rate equivalent to 600 to 800 l/ha, with addition of 0.2% wetting agent. After the treatment, the pots are placed in a greenhouse and kept under good growth conditions for the trial plants. The damage to the test plants is scored visually after a test period of 3 weeks by comparison with untreated controls (herbicidal activity in percent (%): 100% activity=the plants have died, 0% activity=like control plants). […] The tables below illustrate, in an illustrative manner, the post-emergence herbicidal action of the compounds of the invention, the herbicidal activity being stated in percent.

[10] = test system: Polygonum convolvulus; assay: Pre-emergence herbicidal action against POLCO; conditions: 320 g/ha
Method in brief: as §1

[11] = test system: Setaria viridis; assay: Pre-emergence herbicidal action against SETVI; conditions: 320 g/ha
Method in brief: as §1

[12] = test system: Stellaria media; assay: Pre-emergence herbicidal action against STEME
Method in brief: as §1

[13] = test system: Veronica persica; assay: Pre-emergence herbicidal action against VERPE; conditions: 320 g/ha
Method in brief: as §1

[14] = test system: Viola tricolor; assay: Pre-emergence herbicidal action against VIOTR
Method in brief: as §1

[15] = test system: Abutilon theophrasti; assay: Post-emergence herbicidal action against ABUTH
Method in brief: (§2)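 Sandy loam, greenhouse; treatment 2–3 weeks after sowing, one-leaf stage. Aqueous suspension or emulsion from WP/EC sprayed on foliage (600–800 l/ha, 0.2% wetting agent). Readout: visual % action, ~3 weeks.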

[16] = test system: Amaranthus retroflexus; assay: Post-emergence herbicidal action against AMARE; conditions: visual assessment about 3 weeks after treatment
Method in brief: as §2

[17] = test system: Echinochloa crus-galli; assay: Post-emergence herbicidal action against ECHCG; conditions: visual assessment about 3 weeks after treatment
Method in brief: as §2

[18] = test system: Matricaria inodora; assay: Post-emergence herbicidal action against MATIN; conditions: visual assessment about 3 weeks after treatment
Method in brief: as §2

[19] = test system: Pharbitis purpurea; assay: Post-emergence herbicidal action against PHBPU; conditions: 80 g/ha, visual assessment about 3 weeks after treatment
Method in brief: as §2

[20] = test system: Polygonum convolvulus; assay: Post-emergence herbicidal action against POLCO; conditions: 80 g/ha, visual assessment about 3 weeks after treatment
Procedure: Seeds of monocotyledonous and dicotyledonous weed and crop plants are laid out in sandy loam soil in wood-fiber pots, covered with soil and cultivated in a greenhouse under good growth conditions. 2 to 3 weeks after sowing, the test plants are treated at the one-leaf stage. The compounds of the invention, formulated in the form of wettable powders (WP) or as emulsion concentrates (EC), are then sprayed onto the green parts of the plants in the form of an aqueous suspension or emulsion at a water application rate equivalent to 600 to 800 l/ha, with addition of 0.2% wetting agent. After the test plants have been left to stand in the greenhouse under optimal growth conditions for about 3 weeks, the action of the preparations is assessed visually in comparison to untreated controls (herbicidal action in percent (%): 100% activity=the plants have died, 0% activity=like control plants). […] The tables below illustrate, in an illustrative manner, the post-emergence herbicidal action of the compounds of the invention, the herbicidal activity being stated in percent.

[21] = test system: Stellaria media; assay: Post-emergence herbicidal action against STEME; conditions: visual assessment about 3 weeks after treatment
Method in brief: as §2

[22] = test system: Veronica persica; assay: Post-emergence herbicidal action against VERPE; conditions: visual assessment about 3 weeks after treatment
Method in brief: as §2

[23] = test system: Viola tricolor; assay: Post-emergence herbicidal action against VIOTR; conditions: 80 g/ha
Method in brief: as §2

Cc1ccccc1N(C)C(=O)c1c(Cl)ccc(C(=O)Nc2nnnn2C)c1Cl [Example 1-399]
Pre-emergence action against ABUTH ([1]; 80 g/ha): 100% | Pre-emergence action against ABUTH ([1]; Dosage column 320 g/ha (heading prints 3200 g/ha)): 100% | Pre-emergence action against ALOMY ([2]; 80 g/ha): 80% | Pre-emergence action against ALOMY ([2]; 320 g/ha): 100% | Pre-emergence action against AMARE ([3]; 20 g/ha): 90% | Pre-emergence action against AMARE ([3]; 80 g/ha): 100% | Pre-emergence action against AMARE ([3]; 320 g/ha): 100% | Pre-emergence action against AVEFA [4]: 90% | Pre-emergence action against CYPES [5]: 90% | Pre-emergence action against ECHCG ([6]; 80 g/ha): 100% | Pre-emergence action against ECHCG ([6]; 320 g/ha): 100% | Pre-emergence action against MATIN ([7]; 80 g/ha): 90% | Pre-emergence action against MATIN ([7]; 320 g/ha): 100% | Pre-emergence action against PHBPU [8]: 90% | Pre-emergence action against HORMU [9]: 90% | Pre-emergence action against POLCO [10]: 90% | Pre-emergence action against SETVI [11]: 100% | Pre-emergence action against STEME ([12]; 20 g/ha): 90% | Pre-emergence action against STEME ([12]; 80 g/ha): 90% | Pre-emergence action against STEME ([12]; 320 g/ha): 100% | Pre-emergence action against VERPE [13]: 80% | Pre-emergence action against VIOTR ([14]; 80 g/ha): 100% | Pre-emergence action against VIOTR ([14]; 320 g/ha): 100% | Post-emergence action against ABUTH ([15]; 5 g/ha): 80% | Post-emergence action against ABUTH ([15]; 20 g/ha): 100% | Post-emergence action against ABUTH ([15]; 80 g/ha): 100% | Post-emergence action against AMARE in % ([16]; 5 g/ha): 100% | Post-emergence action against AMARE in % ([16]; 20 g/ha): 100% | Post-emergence action against AMARE in % ([16]; 80 g/ha): 100% | Post-emergence action against ECHCG in % ([17]; 20 g/ha): 80% | Post-emergence action against ECHCG in % ([17]; 80 g/ha): 100% | Post-emergence action against MATIN in % ([18]; 20 g/ha): 90% | Post-emergence action against MATIN in % ([18]; 80 g/ha): 90% | Post-emergence action against PHBPU in % [19]: 90% | Post-emergence action against POLCO in % [20]: 100% | Post-emergence action against STEME in % ([21]; 5 g/ha): 80% | Post-emergence action against STEME in % ([21]; 20 g/ha): 90% | Post-emergence action against STEME in % ([21]; 80 g/ha): 100% | Post-emergence action against VERPE in % ([22]; 20 g/ha): 80% | Post-emergence action against VERPE in % ([22]; 80 g/ha): 90% | Post-emergence action against VIOTR in % [23]: 100%
